Assay [1] concerns Triticum aestivum cv. Hereward detached leaf segments. Description: Senescence bioassay on detached wheat leaf segments (chlorophyll retention). The assay is classed as in vivo. As to conditions: for maximum effective concentration: 96 h incubation in the dark at 25° C., tested 10^−8 M to 10^−4 M. The protocol:
Seeds of winter wheat, Triticum aestivum cv. Hereward, were washed under running water for 24 hours and then sown on vermiculite soaked with Knop's solution. They were placed in the growth chamber at 25° C. with a 16/8 h light period at 50 μmol·m^−2·s^−1. After 7 days, the first leaf was fully developed and the second leaf had started to grow. A tip section of the first leaf, approximately 35 mm long, was removed from 5 seedlings and trimmed slightly to a combined weight of 100 mg. The basal ends of the five leaf tips were placed in the wells of a microtiter polystyrene plate containing 150 μL of the tested derivative solution each. The entire plate was inserted into a plastic box lined with paper tissues soaked in distilled water to prevent leaf sections from drying out. After 96 h incubation in the dark at 25° C., the leaves were removed and chlorophyll extracted by heating at 80° C. for 10 min in 5 mL of 80% ethanol (v/v). The sample volume was then restored to 5 mL by the addition of 80% ethanol (v/v). The absorbance of the extract was recorded at 665 nm. In addition, chlorophyll extracts from fresh leaves and leaf tips incubated in deionised water were measured. The results are means of five replicates and the entire test was repeated twice. […] The compounds to be tested were dissolved in dimethylsulfoxide (DMSO) and the solution brought up to 10^−3M with distilled water. […] The activity obtained for 10^−4 M of BAP was postulated as 100%.

The subject of assay [2] is Harpagophytum procumbens nodal explants. As to the kind of experiment: Micropropagation growth response with BAP, Harpagophytum procumbens. To be noted: after 35 days in vitro, N = 12.
The subject of assay [3] is Amelanchier alnifolia nodal explants. Description: Micropropagation growth response with BAP, Amelanchier alnifolia. To be noted: after 35 days in vitro, N = 9.
For assay [4], the system named is Dais cotinifolia shoot-tip explants. As to the kind of experiment: Shoot multiplication and shoot-tip necrosis in shoot cultures of Dais cotinifolia. The assay is classed as in vivo. As to conditions: after 8 weeks of culture. The procedure: Explants were washed thoroughly with 0.1% (v/v) of Tween® 20 for 2 min, and decontaminated with 70% ethanol for 15 sec followed by 0.2% aqueous HgCl2 for 10 min. The explants were rinsed five times with sterile distilled water. […] Each value was presented as the mean±standard error, with three replicates; each replicate consisting of 15 explants per treatment.

Assay [5] deals with Gymnosporia buxifolia shoot-tip explants. Description: Shoot-tip necrosis in in vitro cultures of Gymnosporia buxifolia. To be noted: after 4 weeks of culture.
The mark [6] stands for this setting: 10 μM BAP alone (Treatment No. 2).

Turning to `OC[C@H]1O[C@@H](n2cnc3c(NCc4ccc(Cl)cc4Cl)ncnc32)[C@H](O)[C@@H]1O` [6-(2,4-dichlorbenzylamino)-9-riboside, reference compound], the “activity (%) [10^−4 mol · l^−1 BAP = 100%]” value in assay [1] (chlorophyll content at the maximum effective concentration, 96 h in the dark) is on record as 5 ± 1%.
In the case of `OC[C@H]1O[C@@H](n2cnc3c(NCc4ccccc4Br)ncnc32)[C@@H](O)[C@@H]1O` [6-(2-bromobenzylamino)-9-β-D-arabinofuranosylpurine], the maximum effective concentration in assay [1] is 10^−5 mol · l^−1.
Take `COc1ccc(CNc2ncnc3c2ncn3[C@@H]2O[C@H](CO)[C@@H](O)[C@@H]2O)cc1OC` [6-(3,4-dimethoxybenzylamino)-9-β-D-arabinofuranosylpurine]: the maximum effective concentration in assay [1] is on record as 10^−4 mol · l^−1.
For `OC[C@H]1O[C@@H](n2cnc3c(NCc4cccc(Br)c4)ncnc32)[C@@H](O)[C@@H]1O` [6-(3-bromobenzylamino)-9-β-D-arabinofuranosylpurine], in assay [1], the maximum effective concentration was 10^−4 mol · l^−1.
Regarding `OC[C@H]1O[C@@H](n2cnc3c(NCc4cccc(Cl)c4)ncnc32)[C@@H](O)[C@@H]1O` [6-(3-chlorobenzylamino)-9-β-D-arabinofuranosylpurine], in assay [1], the maximum effective concentration is 10^−4 mol · l^−1.
Consider `OC[C@H]1O[C@@H](n2cnc3c(NCc4cccc(F)c4)ncnc32)[C@@H](O)[C@@H]1O` [6-(3-fluorobenzylamino)-9-β-D-arabinofuranosylpurine], for which the maximum effective concentration in assay [1] was 10^−4 mol · l^−1.
Take `OC[C@H]1O[C@@H](n2cnc3c(NCc4cccc(I)c4)ncnc32)[C@@H](O)[C@@H]1O` [6-(3-iodobenzylamino)-9-β-D-arabinofuranosylpurine]: the maximum effective concentration in assay [1] was 10^−4 mol · l^−1.
`OC[C@H]1O[C@@H](n2cnc3c(NCc4ccc(Br)cc4)ncnc32)[C@@H](O)[C@@H]1O` [6-(4-bromobenzylamino)-9-β-D-arabinofuranosylpurine]: the maximum effective concentration in assay [1] is 10^−4 mol · l^−1.
For the compound `OC[C@H]1O[C@@H](n2cnc3c(NCc4ccco4)ncnc32)[C@@H](O)[C@@H]1O` [6-furfurylamino-9-β-D-arabinofuranosylpurine], the maximum effective concentration in assay [1] was 10^−4 mol · l^−1.
As for `c1ccc(CNc2ncnc3nc[nH]c23)cc1` [BA, 6-benzylaminopurine, reference compound], in assay [2] (setting [6]), the “Fresh weight (g) mean SE” value was found to be 0.3614 ± 0.05563 g, the “Shoot length (mm) mean SE” value is reported as 19.4 ± 1.529 mm and the “Shoot no. mean SE” value is 1.5 ± 0.167. In assay [3] (setting [6]), the “Fresh weight (g) mean SE” value was 0.319 ± 0.1255 g, the “Shoot length (mm) mean SE” value turned out to be 17.22 ± 1.770 mm and the “Shoot no. mean SE” value was determined as 7.7 ± 2.65. In assay [4] (10 μM in MS medium), the Morphogenesis in vitro result is listed as “Dark green shoots + SBI”, the “STN [%] (shoot-tip necrosis)” value stood at 61.5 ± 1.02a %, the “Shoot length [cm]” value came to 1.52 ± 0.26bc cm and the “Shoots [explant^−1] […]” value is 3.4 ± 0.37a explant^−1. In assay [5] (10 μM in MS medium), the “STN [%] (shoot-tip necrosis)” value is 73.3 ± 0.20a %, the “Shoot length [cm]” value is given as 1.92 ± 0.09b cm and the “Shoots [explant^−1] […]” value is given as 1.0 ± 0.0a explant^−1.
In the case of `OC[C@H]1O[C@@H](n2cnc3c(NCc4ccccc4F)ncnc32)[C@@H](O)[C@@H]1O` [Example 2FBAPA, 6-(2-fluorobenzylamino)-9-β-D-arabinofuranosylpurine], the “Fresh weight (g) mean SE” value in assay [2] (5 μM compound with 10 μM BAP) turned out to be 0.8764 ± 0.1818 g; in assay [2] (10 μM compound with 10 μM BAP), 0.6712 ± 0.1149 g; in assay [2] (20 μM compound with 10 μM BAP), 0.8935 ± 0.231 g; in assay [2] (30 μM compound with 10 μM BAP), 0.6877 ± 0.1009 g; in assay [3] (5 μM compound with 10 μM BAP) it was 0.178 ± 0.0428 g; in assay [3] (10 μM compound with 10 μM BAP), 0.529 ± 0.1739 g. The “Fresh weight (g) mean SE” value in assay [3] (20 μM compound with 10 μM BAP) is reported as 0.492 ± 0.0593 g; in assay [3] (30 μM compound with 10 μM BAP), 0.584 ± 0.1564 g. For the same compound, the “Shoot length (mm) mean SE” value is 19.8 ± 3.2721 mm in assay [2] (5 μM compound with 10 μM BAP); 23.9 ± 3.195 mm in assay [2] (10 μM compound with 10 μM BAP); 34.9 ± 5.608 mm in assay [2] (20 μM compound with 10 μM BAP); 23.7 ± 2.937 mm in assay [2] (30 μM compound with 10 μM BAP); 14.33 ± 2.754 mm in assay [3] (5 μM compound with 10 μM BAP); 14.67 ± 1.291 mm in assay [3] (10 μM compound with 10 μM BAP). Also, the “Shoot length (mm) mean SE” value was found to be 19.33 ± 2.571 mm in assay [3] (20 μM compound with 10 μM BAP) and 16.44 ± 2.369 mm in assay [3] (30 μM compound with 10 μM BAP). Besides, the “Shoot no. mean SE” value is recorded as 1.7 ± 0.335 in assay [2] (5 μM compound with 10 μM BAP); 2.5 ± 0.477 in assay [2] (10 μM compound with 10 μM BAP); 2.8 ± 0.291 in assay [2] (20 μM compound with 10 μM BAP); 2.4 ± 0.267 in assay [2] (30 μM compound with 10 μM BAP); 7.2 ± 1.41 in assay [3] (5 μM compound with 10 μM BAP); 13.2 ± 3.44 in assay [3] (10 μM compound with 10 μM BAP). Besides, the “Shoot no. mean SE” value came to 15.4 ± 1.62 in assay [3] (20 μM compound with 10 μM BAP) and 14.9 ± 2.40 in assay [3] (30 μM compound with 10 μM BAP). Also, the Morphogenesis in vitro entry in assay [4] (5 μM in MS medium) is “Pale green shoots”; in assay [4] (10 μM in MS medium) it was “Pale green shoots”; in assay [4] (20 μM in MS medium) it was “Green shoots”; in assay [4] (30 μM in MS medium), “Green shoots”. Further, the “STN [%] (shoot-tip necrosis)” value is listed as 33.3 ± 0.74e % in assay [4] (5 μM in MS medium); 31.5 ± 1.18ef % in assay [4] (10 μM in MS medium); 27.7 ± 0.74g % in assay [4] (20 μM in MS medium); 20.0 ± 0.44h % in assay [4] (30 μM in MS medium); 66.7 ± 0.32b % in assay [5] (5 μM in MS medium); 58.0 ± 0.40c % in assay [5] (10 μM in MS medium). Besides, the entries for the “STN [%] (shoot-tip necrosis)” value in assay [5] (20 μM in MS medium) and in assay [5] (30 μM in MS medium) were 42.0 ± 1.20f % and 26.6 ± 0.37h %, respectively. Also, the “Shoot length [cm]” value is listed as 1.12 ± 0.12bc cm in assay [4] (5 μM in MS medium); 1.54 ± 0.16bc cm in assay [4] (10 μM in MS medium); 1.90 ± 0.14ab cm in assay [4] (20 μM in MS medium); 2.40 ± 0.27a cm in assay [4] (30 μM in MS medium); 1.02 ± 0.15bc cm in assay [5] (5 μM in MS medium); 1.82 ± 0.13b cm in assay [5] (10 μM in MS medium). Also, the figures for the “Shoot length [cm]” value in assay [5] (20 μM in MS medium) and in assay [5] (30 μM in MS medium) were 3.20 ± 0.17a cm and 2.98 ± 0.12a cm, respectively. Also, the “Shoots [explant^−1] […]” value in assay [4] (5 μM in MS medium) was determined as 1.0 ± 0.00c explant^−1; in assay [4] (10 μM in MS medium) it was 1.6 ± 0.24bc explant^−1; in assay [4] (20 μM in MS medium) it was 2.0 ± 0.32b explant^−1; in assay [4] (30 μM in MS medium), 2.3 ± 0.37b explant^−1; in assay [5] (5 μM in MS medium) it was 1.0 ± 0.0a explant^−1; in assay [5] (10 μM in MS medium), 1.0 ± 0.0a explant^−1. Further, the “Shoots [explant^−1] […]” value in assay [5] (20 μM in MS medium) and in assay [5] (30 μM in MS medium) was 1.0 ± 0.0a explant^−1 in each case.

The values are drawn from patent publication US10550144B2, “6-aryl-9-glycosylpurines and use thereof” (UNIVERZITA PALACKEHO V OLOMOUCI, priority 2014, dated 2020).
